Measurements published in patent US20070065484A1, “In situ occlusion using natural biodegradable polysaccharides” (priority 2005, published 2007).
Like-named read-outs stand apart in the source and are kept apart here.

Tested on: PC-12 cells
Conditions: incubation 15 min
Method: Cell suspensions were prepared as follows: PC-12 cells (ATCC; passage 5; 75% confluency) were harvested from a T-75 flask using Trypsin-EDTA for 2 minutes. The cells were placed in a 15 mL polyethylene conical (VWR) and centrifuged in F-12k media without serum for 4 minutes at 500 rpm. The cells were counted using a hemocytometer, centrifuged for 4 minutes at 500 rpm, and resuspended at 600,000 cells/mL in sterile PBS.
In order to determine the effect of individual components of the matrix forming compositions on cell viability, solutions A-G were independently mixed with PC-12 cells. 50 uL of cell suspension was added to 350 uL of solutions A-G (Table 4). After a 15 minute incubation, cell viability was assessed using a Live/Dead™ Viability/Cytotoxicity Kit (cat. # L3224; Molecular Probes, Eugene, Oreg.).
The effect of a formed matrix on cell viability was also tested. To form the PD-A matrix, solution #1 (200 mg PD-A, 10 uL TEMED, 20 uL 1N HCl, 470 uL PBS) was added in the amount of 200 uL to a 1.6 ml eppendorf (VWR). Solution #2 (400 mg PD-A, 10 mg Potassium persulfate, 75K PC-12 cells, 500 uL PBS ) was added in the amount of 200 uL to solution #1 in the eppendorf and mixed for 10 seconds. After a 15 minute incubation, cell viability was assessed using the Live/Dead™ Viability/Cytotoxicity Kit.

N.N.O=S(=O)(O)OOS(=O)(=O)O [Ammonium persulfate]
Cell viability (%) (10 mg/ml in PBS): 90% | Cell viability (%) (120 mg/ml in PBS): 90%

CN(C)CCN(C)C [TEMED/PBS, N,N,N′,N′-Tetramethylethylenediamine]
Cell viability (%) (0.2% (V/V) in PBS): 10-30%

O=S(=O)([O-])OOS(=O)(=O)[O-].[K+].[K+] [Potassium persulfate]
Cell viability (%) (10 mg/ml in PBS): 90%

O=S(=O)([O-])OOS(=O)(=O)[O-].[Na+].[Na+] [Sodium persulfate]
Cell viability (%) (5 mg/ml in PBS): 90%
